Data reported in ChEMBL document CHEMBL1128869, “-Mercaptoacyl dipeptides that inhibit angiotensin converting enzyme and neutral endopeptidase 24.11” (Bioorg Med Chem Lett, 1995).
pIC50: −log10 of the molar value.

Tests used:
[1] = species on record: Rattus norvegicus; assay: Compound concentration that causes inhibition of angiotensin-I (AI) induced pressor response in normotensive rats after intra arterial injection; type: functional
[2] = species on record: Rattus norvegicus; assay: Time taken for 50 % or more inhibition of angiotensin-I (AI) induced pressor response in normotensive rats; type: functional
[3] = target: Angiotensin-converting enzyme (Homo sapiens, UniProt P12821); assay: Inhibition of angiotensin converting enzyme (ACE); type: protein assay
[4] = target: T1, Neprilysin (Rattus norvegicus, UniProt P07861); assay: Inhibition of neutral endopeptidase (NEP) 24.11
T1 sequence (P07861 whole entry): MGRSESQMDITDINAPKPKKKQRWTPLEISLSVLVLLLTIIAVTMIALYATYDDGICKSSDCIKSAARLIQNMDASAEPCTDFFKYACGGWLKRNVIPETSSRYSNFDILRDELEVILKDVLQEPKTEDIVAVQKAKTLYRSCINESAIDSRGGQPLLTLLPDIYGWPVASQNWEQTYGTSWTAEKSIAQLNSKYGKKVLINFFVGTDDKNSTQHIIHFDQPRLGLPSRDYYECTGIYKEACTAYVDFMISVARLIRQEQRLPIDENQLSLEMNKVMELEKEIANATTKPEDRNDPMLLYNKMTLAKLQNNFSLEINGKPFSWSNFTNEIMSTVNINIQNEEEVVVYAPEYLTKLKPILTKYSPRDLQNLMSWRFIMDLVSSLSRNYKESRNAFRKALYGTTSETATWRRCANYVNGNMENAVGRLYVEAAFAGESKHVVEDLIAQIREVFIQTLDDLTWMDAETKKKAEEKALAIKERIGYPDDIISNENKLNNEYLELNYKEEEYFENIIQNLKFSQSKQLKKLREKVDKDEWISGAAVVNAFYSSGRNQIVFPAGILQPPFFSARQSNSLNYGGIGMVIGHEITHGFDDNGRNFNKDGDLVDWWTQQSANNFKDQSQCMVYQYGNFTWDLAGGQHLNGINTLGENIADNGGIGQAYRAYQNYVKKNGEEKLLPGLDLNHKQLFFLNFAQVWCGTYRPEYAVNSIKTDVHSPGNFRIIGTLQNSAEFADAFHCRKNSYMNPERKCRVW

[5] = species on record: Rattus norvegicus; assay: Concentration that causes inhibition of angiotensin-I (AI) induced pressor response in normotensive rats after intra arterial injection; type: functional

Row | SMILES | Inhibition [1] | Duration of action [2] | IC50 [3] | pIC50 [4] | Inhibition [5]
1 | CC(C)[C@H](S)C(=O)N[C@@H](Cc1ccc(-c2ccccc2)cc1)C(=O)N[C@H](C(=O)O)C(C)C | 10 mg/kg | 70 min | 175 nM | 7.48 | 
2 | O=C(N[C@@H](Cc1cccc2ccccc12)C(=O)N1CCC[C@H]1C(=O)O)[C@H](S)Cc1ccccc1 |  |  | 27 nM | < 6.00 | 
3 | CC(C)[C@H](S)C(=O)N[C@@H](Cc1ccc(-c2ccccc2)cc1)C(=O)N[C@@H](CO)C(=O)O |  |  | 100 nM | 7.37 | 
4 | O=C(N[C@@H](Cc1ccc(-c2ccccc2)cc1)C(=O)O)[C@H](S)Cc1ccccc1 |  |  | 688 nM | 7.00 | 
5 | O=C(N[C@@H](Cc1ccc(-c2ccccc2)cc1)C(=O)N1CCC[C@H]1C(=O)O)[C@H](S)Cc1ccccc1 |  |  | 229 nM | 7.23 | 
6 | O=C(N[C@@H](Cc1ccc(-c2ccccc2)cc1)C(=O)N1CCC[C@H]1C(=O)O)[C@@H](S)c1ccc2c(c1)OCO2 |  |  | 183 nM | 6.41 | 
7 | O=C(N[C@@H](Cc1ccc2ccccc2c1)C(=O)N1CCC[C@H]1C(=O)O)[C@H](S)Cc1ccccc1 |  |  | 304 nM | 6.23 | 
8 | O=C(O)[C@H](Cc1ccc(-c2ccccc2)cc1)NC(=O)[C@@H](S)Cc1ccccc1 |  |  | 80 nM | 6.18 | 
9 | O=C(N[C@@H](Cc1ccc(-c2ccccc2)cc1)C(=O)N1CCC[C@H]1C(=O)O)[C@H](S)c1ccc2c(c1)OCO2 |  |  | 378 nM | 6.65 | 
10 | CC(C)[C@H](S)C(=O)N[C@@H](Cc1ccc(-c2ccccc2)cc1)C(=O)N[C@@H](Cc1ccc(O)cc1)C(=O)O |  | 60 min | 62 nM | 7.55 | 10 mg/kg
11 | O=C(N[C@@H](Cc1cccc2ccccc12)C(=O)N1CCC[C@H]1C(=O)O)[C@@H](S)Cc1ccccc1 |  |  | 14 nM | < 6.00 | 
12 | CC(C)[C@H](S)C(=O)N[C@@H](Cc1ccc(-c2ccccc2)cc1)C(=O)N1CCC[C@H]1C(=O)O |  |  | 319 nM | 6.30 | 
13 | O=C(N[C@@H](Cc1ccc2ccccc2c1)C(=O)N1CCC[C@H]1C(=O)O)[C@@H](S)Cc1ccccc1 |  | 25 min | 18 nM | 6.15 | 10 mg/kg
14 | O=C(N[C@@H](Cc1ccc(-c2ccccc2)cc1)C(=O)N1CCC[C@H]1C(=O)O)[C@@H](S)Cc1ccccc1 |  | 50 min | 57 nM | 6.93 | 10 mg/kg
